# Laboratory results reported in patent publication US12059000B1, “Use of erythritol compositions as mammal-safe insecticides” (Drexel University, priority 2020, dated 2024).
# Entries after “also recorded” stand apart in the source; their conditions may differ.
# Experiments:
# [1] = test system: fruit flies; experiment: Comparison of erythritol with other sweet alcohols, fly longevity; format: in vivo, Drosophila melanogaster; conditions: 1 M in standard fly food, 17 days
# Procedure: An experiment was conducted to compare the effectiveness of erythritol with other human-safe sweet alcohols: D-mannitol, maltitol, sucrose, and xylitol. The concentration of all sweet alcohols were 1M.
# Flies were raised for 17 days on standard fly food that contained 1 M concentrations of each sweetener treatment. Death of flies was recorded daily as before; each treatment was replicated on three vials of 10 flies each for 30 subjects/treatment. Differences in longevity were analyzed using the Kaplan-Meier survival analysis log rank test, making all pairwise comparisons among treatments.
# [2] = test system: R. flavipes workers; experiment: Termite survival experiment on erythritol-treated paper; format: in vivo, Reticulitermes flavipes
# Procedure: Termites used in the survival and choice experiments were collected from three field colonies in Scotland Run Park (39.66° N, 75.05° W) in Clayton, NJ between April and May 2019. After collection, colonies were maintained in plastic containers with soil and wood from the collection site as a substrate in laboratory conditions (20.8±0.9° C., 49±7% RH). Termites used in the consumption experiment were collected from a single field colony at Cobb's Creek Park (39.94° N, 75.24° W) in Philadelphia, PA during September of 2018. Workers were removed from the log and housed within 24 h of collection in 9 cm diameter petri dishes containing damp paper towel as a food source. Dishes were placed in an incubator at 26° C. (relative humidity varied between 40 and 60% across trials, but was consistent among all treatments within each trial). Each petri dish contained 10 workers. Termites used in all experiments measured 3-4 mm in length.
# For the survival experiment, unbleached, brown paper towels (12 cmx 24 cm, cat no. 01801, Kimberly-Clark Corporation, Neenah, WI), were completely submerged for 15 s in solution of distilled water, erythritol (100% purity, NOW foods, Bloomingdale, IL) of the below-specified concentrations, and 0.05% Brilliant Blue R-250 dye (cat. no 27816, Sigma-Aldrich, St. Louis, MO). The erythritol concentrations used were: 0 M (control), 0.25 M, 0.5 M, 0.75 M, 1.0 M, and 1.25 M. The treated paper towels were removed from solution and allowed to dry horizontally on racks before being cut into squares with an area of 144 cm^2. […]
# Following the pretrial period, the experiment was set up: pretrial paper towels were removed and replaced with treated paper towels of the correct erythritol treatment concentration; these were rehydrated with 750 μL of distilled water. […] Termite mortality was recorded every 24 h for 8 d.
# Analyses were performed using SPSS v. […] Mean percent mortality was calculated for each concentration across colonies at 72 and 96 h and a three parameter, best-fit sigmoid curve was fitted to the data in Sigmaplot to assess LC at these time points.
# [3] = humans, even in high concentrations; cited from earlier work
# [4] = test system: Drosophila melanogaster; experiment: Erythritol concentration trials on fly longevity; format: in vivo
# Procedure: Standard fly foods were prepared as previously described, and then were treated with 2M, 1M, 0.5M and 0.1M concentrations of erythritol, using 0.5M sucrose as control. 0 to 24 hour-old Drosophila were placed on these foods and mortality was recorded daily for 35 days as above. Analyses were conducted with SPSS software v. 20 (IBM corporation 2011). Fly longevity data were analyzed using survival analysis with right-hand censoring of subjects that lived to the end of the study or were lost for reasons other than death. Test were run for differences in survival distributions [Pr(flies alive) versus insect age] using the log-rank (Mantel-Cox) test to make all pairwise comparisons among treatments within each experiment.
# [5] = test system: fruit flies; conditions: 0.5 M erythritol food, previous work; cited from earlier work
# [6] = test system: Drosophila melanogaster; experiment: Two-way choice experiments, fly longevity; format: in vivo
# Procedure: Foods containing 2 M erythritol, 1M erythritol and 1M sucrose were prepared for paired presentations in open choice tests. In each treatment one food type contained 0.05% brilliant blue FCF (Fisher 50-727-25). The blue dye allowed visual confirmation of feeding on the dyed food in the pair. The flies were presented with access to two food choices by using a modified cotton stopper with approximately a 1.5 cm diameter hole to connect each pair of food tubes.
# The final choice treatment was between blue 2M erythritol food and non-blue 1M sucrose food (this treatment provides a comparison with the 1M erythritol/1M erythritol treatment as a test of dilution of toxicity by alternative food sources; blue guts would confirm erythritol was being consumed in the presence of sucrose). The number of flies with visible blue gut contents and mortality daily were recorded for 30 days.
# Analyses were conducted with SPSS software v. 20 (IBM corporation 2011). Fly longevity data were analyzed using survival analysis with right-hand censoring of subjects that lived to the end of the study or were lost for reasons other than death. Test were run for differences in survival distributions [Pr(flies alive) versus insect age] using the log-rank (Mantel-Cox) test to make all pairwise comparisons among treatments within each experiment.
# [7] = test system: Drosophila melanogaster; experiment: Drosophila longevity assay on food containing sweeteners; format: in vivo; conditions: repeat with blue food, 0.0238 g/ml
# Procedure: All animals were cultured at 25° C., kept at 50-60% humidity, and were raised under a standard 12:12 light dark cycle. For each experimental treatment, n=30 flies were tested in groups of 10 per tube, and three tubes per treatment. Tubes were kept on their side to minimize subject becoming mired in the food. Foods were replaced twice a week. The total number of fruit flies used for these experiments was 780, with 300 used for two initial trials testing mortality among store-brand sweeteners, 210 used for repeating this with blue dye and pure erythritol, 120 for choice trials and 150 for concentration trials.
# Standard Drosophila food for larval culturing consisted of water, cornmeal, yeast, molasses, and agar, as previously described (Chakraborty, et al., 2011, PLoS ONE 6: e20799). […] The addition of cornmeal and yeast assured the flies still received sufficient carbohydrates and protein in addition to any effects of the treatment additives.
# Drosophila food was combined with an equal weight/volume (0.0238 g/ml) of one non-nutritive sweetener (TRUVIA, EQUAL, SPLENDA, SWEET'NLOW, or PUREVIA) or a control nutritive sweetener (controls: sucrose or corn syrup). Wild type (Canton S) larvae were initially raised on the standard food, and 0-12 hour old adult flies were transferred to foods containing one non-nutritive sweetener or a control treatment. […] The number of dead flies were scored daily.
structure (smiles),measurement,setting,value
OC[C@@H](O)[C@H](O)[C@@H](O)CO [xylitol],fly longevity / insecticidal effect compared to sucrose control,[1],did not differ from sugar control; also recorded: did not differ from the control; also recorded: not effective at reducing fly longevity
OC[C@@H](O)[C@@H](O[C@H]1O[C@H](CO)[C@@H](O)[C@H](O)[C@H]1O)[C@H](O)[C@@H](O)CO [maltitol],fly longevity / insecticidal effect compared to sucrose control,[1],did not differ from sugar control; also recorded: did not differ from the control; also recorded: not effective at reducing fly longevity
OC[C@@H](O)[C@@H](O)[C@H](O)[C@H](O)CO [D-mannitol],fly longevity / insecticidal effect compared to sucrose control,[1],did not differ from sugar control; also recorded: slightly but significantly reduced longevity; also recorded: almost insignificant insecticidal effect
"OC[C@@H](O)[C@@H](O)CO [erythritol, (2R,3S)-butane-1,2,3,4-tetraol]",fly longevity / insecticidal effect compared to sucrose control,[1],toxic to fruit flies upon ingestion
same,mean fly longevity,[1],4.7 ± 0.15 days
same,"longevity of workers to 8 d, erythritol treatments versus 0M control (FIG. 9)","[2]; 0.25-1.25 M treated paper, 8 d",All treatments are significantly different from 0 M; also recorded: differed significantly
same,lowest concentration with significant effects on longevity,"[2]; R. flavipes workers, 8 d",0.25 M
same,time to 50% mortality,"[2]; termites, 0.5 M erythritol filter papers",≤ 2 days
same,safety of consumption,[3],safe to humans
same,longevity compared to control food containing 0.5M sucrose,"[4]; 0.1M in food, 35 days",no significant difference in longevity
same,dose response of fly longevity (FIG. 4),"[4]; 0.1M, 0.5M, 1.0M and 2.0M in food",significant decrease in longevity of adult flies as concentration of erythritol was increased; also recorded: dose-dependent reduction in longevity
same,longevity compared to control food containing 0.5M sucrose,"[4]; 0.5M in food, 35 days",significant reductions in longevity
same,longevity compared to control food containing 0.5M sucrose,"[4]; 1M in food, 35 days",significant reductions in longevity
same,longevity compared to all other treatments,"[4]; 2M in food, 35 days",significant and severe effect on longevity
same,time to 50% mortality,[5],20 days
same,longevity relative to sucrose:sucrose choice (FIG. 5),[6]; choice between 1M sucrose and 1M erythritol,significant decrease in longevity; also recorded: significantly decreased longevity
same,longevity relative to sucrose:sucrose choice (FIG. 5),[6]; choice between 1M sucrose and 2M erythritol,significant decrease in longevity; also recorded: significantly reduced
same,"longevity compared to PUREVIA, EQUAL, sucrose and corn syrup (FIG. 3)",[7],significant decrease in longevity
